In publication PMC8268581, “Identification of 3,4-Dihydro-2H,6H-pyrimido[1,2-c][1,3]benzothiazin-6-imine Derivatives as Novel Selective Inhibitors of Plasmodium falciparum Dihydroorotate Dehydrogenase” (International Journal of Molecular Sciences, 2021):

Columns and labels:
[1] = biological target: T1, PfDHODH (Plasmodium falciparum, UniProt Q08210); experiment: PfDHODH inhibition assay (DCIP end-point, 384-well); assay type: biochemical; conditions: recombinant tag-free PfDHODH, 20 min, serial dilutions 0.0007-22.7 µM; read-out: IC50 DHODH Pf
T1 construct: encoding amino acid residues 158 to 569 fused to a His6-SUMO tag in its N-terminus; His6-SUMO (N, cleaved yes); made in house; host or cells: E. coli BL21 Star (DE3), pETSUMO/PfDHODH
Experimental: The screening of 40,400 compounds was conducted in 384-well plates by adapting the end-point assay reported before. First, 1 µL of 200 µM compound was transferred into 384-well plates using a Benchtop Multi-Pipetter EDR-384SR (Biotech Co., Ltd., Tokyo, Japan). […] Next, 38 µL of assay mix (100 mM HEPES-NaOH pH 7.5, 5% (v/v) glycerol, 150 mM NaCl, 0.05% (v/v) Triton X-100, 15 µM decylubiquinone (dUQ, Sigma), 120 µM 2,6-dichlorophenolindophenol (DCIP, Sigma), and 20 nM PfDHODH) were dispensed into all wells and mixed at 600 rpm for 1 min by a MixMate®® (Eppendorf). The reaction was started by the addition of 5 µL of 1.8 mM L-DHO (Sigma) as the substrate and mixed as described above for 20 s. The absorbance at 600 nm was recorded using a SpectraMax®® Paradigm®® Multi-Mode Microplate Reader (Molecular Devices) before (t0) and after 20 min (t20) incubation at room temperature. The readings at t0 were subtracted from t20, and PfDHODH inhibition was calculated as the inhibition relative to the negative and positive controls in a single-point assay. Hits were defined as compounds inhibiting more than 50% of PfDHODH activity at 4.5 µM. The quality of the screening system was evaluated by calculating statistical parameters: Z′-factor, S/N, S/B, SW, and CV, as previously reported. The IC50 values of the hit compounds were determined using the same assay system containing serial dilutions of each compound in triplicates (22.7, 6.8, 2.27, 0.68, 0.227, 0.068, 0.023, 0.007, 0.002, 0.0007 µM) using GraphPad Prism 8.0 software (GraphPad Software Inc., San Diego, CA, USA).

[2] = biological target: T2, HsDHODH (Homo sapiens, UniProt Q02127); experiment: HsDHODH counter-assay; assay type: biochemical; conditions: purified recombinant HsDHODH, tested at 4.5 µM; read-out: IC50 DHODH Hs
T2 construct: made in house
Experimental: Selected hit compounds from PfDHODH screening were tested for potential inhibition against HsDHODH at 4.5 µM. The HsDHODH used in this study was purified as previously reported. The HsDHODH assay was performed similarly to that for PfDHODH, but in an assay mix consisting of 50 mM Tris-HCl pH 8.0, 0.1% (v/v) Triton X-100, 2 mM potassium cyanide (KCN, Wako), 60 µM dUQ, and 120 µM DCIP, with the reaction started by the addition of 200 µM L-DHO (final concentration) in triplicate. For this assay, DMSO was used as a negative control and 10 µM of lapachol was used as a positive control (100% inhibition). The relative inhibition was calculated as described above.

[3] = biological target: mammalian mitochondrial complexes I–III (Bos taurus, UniProt P00157+P03887+P17694+P42026); experiment: NADH-cytochrome c reductase (complexes I–III) activity assay; assay type: biochemical; conditions: bovine heart mitochondria, range tested 0.0007 to 22.7 µM; read-out: IC50 Mammalian Mitochondrial CI–III
Experimental: (§1) Bovine heart mitochondria were prepared as previously described. The NADH-cytochrome c reductase (complexes I–III) and succinate-cytochrome c reductase (complexes II–III) activities were assayed in 384-well plates following an established protocol with small modifications. Complex I–III activity was assayed in a reaction mix containing 50 mM phosphate buffer pH 7.4, 2 mM KCN, 200 µM cytochrome c (cytochrome c from horse heart, Nacalai tesque), and 15 µg/mL mitochondria. Plates containing 1 µL serial dilutions of PfDHODH inhibitors were prepared and mixed with 38 µL of the reaction mix, as described above. The reaction was started by the addition of 5 µL of 2.6 mM NADH, and the assay was performed as described for PfDHODH, but at 550 nm and with 15 min of incubation. Complex II–III activity was assayed similarly to complex I–III activity but with 100 µM cytochrome c and 25 µg/mL mitochondria, and the reaction was started by 10 mM succinate. For both assays, DMSO and 5 µM ascochlorin were used as negative and positive controls, respectively. Assays were performed in triplicate.

[4] = biological target: mammalian mitochondrial complexes II–III (Bos taurus, UniProt P00157+P35720+Q3T189+Q95123); experiment: succinate-cytochrome c reductase (complexes II–III) activity assay; assay type: biochemical; conditions: bovine heart mitochondria, range tested 0.0007 to 22.7 µM; read-out: IC50 Mammalian Mitochondrial CII–III
Experimental: as §1

[5] = test system: P. falciparum 3D7; experiment: In vitro antimalarial assay (PfLDH/diaphorase); assay type: cell-based; conditions: Plasmodium falciparum, growth inhibition, 72 h, 0.0003 to 10 µM, read-out: EC50 Pf3D7
Experimental: This assay was conducted using human red blood cells (RBC) following the guidelines of the ethics committee of Nagasaki University (permission no. 19). Human RBC was obtained from the Japanese Red Cross Society. The P. falciparum 3D7 strain was cultured in 2% hematocrit type O human RBC in RPMI-1640 medium (Gibco) supplemented with 23.8 mM sodium bicarbonate (Wako), 50 mg/L hypoxanthine (Wako), 25 mg/L gentamycin (Sigma), and 0.5% (w/v) AlbuMAX®® II (Gibco) under a 5% O2, 5% CO2, and 90% N2 atmosphere at 37 °C. Parasites were synchronized with 5% (w/v) D-sorbitol (Wako).
Synchronized ring-stage parasites at 0.3% parasitemia and 2% hematocrit were cultured in a 384-well plate at 25 µL with test compounds at a final concentration in the range of 0.0003 to 10 µM with a fixed DMSO concentration of 0.4% (v/v). Parasite growth was monitored by the diaphorase-coupled P. falciparum lactate dehydrogenase (PfLDH) assay, as previously described. After 72 h, 70 µL of the assay solution (150 mM lithium L-lactate (Wako), 0.05 mg/mL 3-acetylpyridine adenine dinucleotide (Oriental Yeast Co., Ltd., Tokyo, Japan), 0.2 mg/mL nitro blue tetrazolium (Wako), 1 unit/mL diaphorase, and 100 mM Tris-HCl pH 8.0) were mixed with the parasite culture and incubated at room temperature for 40 min, and the generated nitro blue formazan was measured at 650 nm using a SpectraMax®® Paradigm®® Multi-Mode Microplate Reader. […] The EC50 was calculated using GraphPad Prism 8.0 software from the mean of quadruplets values.

[6] = Cytotoxicity assay, HDF (Cell Counting Kit-8); assay type: cell-based; conditions: human dermal fibroblast (HDF) cells, normal human dermal fibroblasts
Experimental: (§2) Human dermal fibroblast cells (HDF, Zenbio, Inc., Durham, NC, USA) were cultured in Dulbecco’s Modified Eagle Medium/Nutrient Mixture F-12 medium (DMEM/F12, Gibco), human pancreatic carcinoma cells (PANC-1, DS Pharma Biomedical, Co., Ltd.) were cultured in DMEM (Gibco), and human colorectal adenocarcinoma cells (DLD-1, Taiho Pharmaceutical Company) were cultured in RPMI-1640 medium (FUJIFILM Wako Pure Chemicals). The culture mediums were supplemented with 10% (v/v) heat-inactivated fetal bovine serum (Gibco) and the cells were maintained at 37 °C under 5% CO2.
(§3) HDF, PANC-1, and DLD-1 were seeded at 2.5 × 10^4 cells/well on a 96-well plate and incubated at 37 °C under 5% CO2 overnight. The cells were then washed with PBS and the medium was replaced with 99 µL of fresh media. Then, 1 µL of the compounds or DMSO was added to the respective wells. As controls, wells containing 1% (v/v) DMSO in column 1 and wells containing only the culture medium in column 12 were used as the negative and positive controls, respectively. After 48 h of incubation, the cells were washed with PBS, and 99 µL of fresh media was replaced, followed by the addition of 10 µL of Cell Counting Kit-8 (Dojindo) to each well. After 3 h of incubation, the absorbance was measured at 450 nm using a SpectraMax®® Paradigm®® Multi-Mode microplate Reader. The calculation of cell viability in the test well was based on the absorbance of control wells according to the manufacturer’s protocol. The mean of quadruplet values was used to calculate the CC50 using GraphPad Prism 8.0 software.

[7] = Cytotoxicity assay, PANC-1 (Cell Counting Kit-8); assay type: cell-based; conditions: PANC-1 human pancreatic carcinoma cells
Experimental: as §2, §3

[8] = Cytotoxicity assay, DLD-1 (Cell Counting Kit-8); assay type: cell-based; conditions: DLD-1 human colorectal adenocarcinoma cells
Experimental: as §2, §3

T2 sequence (Q02127 whole entry): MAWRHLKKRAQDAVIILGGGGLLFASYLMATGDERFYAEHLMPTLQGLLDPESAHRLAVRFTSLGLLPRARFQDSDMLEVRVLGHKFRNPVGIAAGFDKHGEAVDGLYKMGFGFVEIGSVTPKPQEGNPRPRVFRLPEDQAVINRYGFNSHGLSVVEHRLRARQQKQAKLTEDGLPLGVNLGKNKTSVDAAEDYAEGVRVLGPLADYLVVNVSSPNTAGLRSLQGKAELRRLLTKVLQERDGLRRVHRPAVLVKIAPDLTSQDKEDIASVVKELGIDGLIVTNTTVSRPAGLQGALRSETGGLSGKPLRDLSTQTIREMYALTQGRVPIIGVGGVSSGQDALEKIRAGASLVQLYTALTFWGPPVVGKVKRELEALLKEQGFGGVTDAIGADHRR
T1 sequence (Q08210 158-569): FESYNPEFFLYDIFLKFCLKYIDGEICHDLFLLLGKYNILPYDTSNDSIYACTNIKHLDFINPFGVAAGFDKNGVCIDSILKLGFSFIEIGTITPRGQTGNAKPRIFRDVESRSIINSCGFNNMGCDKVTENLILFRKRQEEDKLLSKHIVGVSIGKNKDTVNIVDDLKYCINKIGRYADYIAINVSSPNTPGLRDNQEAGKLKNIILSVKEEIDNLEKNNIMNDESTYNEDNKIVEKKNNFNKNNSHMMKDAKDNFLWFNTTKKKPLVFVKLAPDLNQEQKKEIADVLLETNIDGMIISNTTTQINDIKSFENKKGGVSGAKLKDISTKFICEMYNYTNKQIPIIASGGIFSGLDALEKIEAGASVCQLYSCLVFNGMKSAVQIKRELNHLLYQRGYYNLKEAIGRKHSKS

Row | SMILES | IC50 [1] | IC50 [2] | IC50 [3] | IC50 [4] | EC50 [5] | EC50 at 48 h [6] | EC50 at 48 h [7] | EC50 at 48 h [8]
1 | N=C1Sc2cc(-c3cccc4ccccc34)ccc2C2=NCCCN12 [Compound 2] | 0.85 ± 0.05 µM | > 4.5 µM | 13.9 ± 2.14 µM | > 22.7 µM | > 10 µM | > 10 µM | > 10 µM | > 10 µM
2 | N=C1Sc2ccc(-c3ccccc3)cc2C2=NCCCN12 [Compound 9] | 0.76 ± 0.08 µM | > 4.5 µM | > 22.7 µM | > 22.7 µM | > 10 µM | > 10 µM | > 10 µM | > 10 µM
3 | N=C1Sc2cc3ccccc3cc2C2=NCCCN12 [Compound 11, 2,3,4,6-tetrahydro-7-thia-1,5-diazatetraphen-6-imine] | 6.42 ± 0.09 µM | > 4.5 µM | > 22.7 µM | > 22.7 µM | > 10 µM | > 10 µM | > 10 µM | > 10 µM
4 | N=C1Sc2cc(-c3ccc(C(N)=O)cc3)ccc2C2=NCCCN12 [Compound 16] | 1.82 ± 0.08 µM | > 4.5 µM | > 22.7 µM | > 22.7 µM | > 10 µM | > 10 µM | > 10 µM | > 10 µM
5 | CC(=O)Nc1cccc(-c2ccc3c(c2)SC(=N)N2CCCN=C32)c1 [Compound 23] | 1.85 ± 0.19 µM | > 4.5 µM | > 22.7 µM | > 22.7 µM | > 10 µM | > 10 µM | > 10 µM | > 10 µM
6 | CS(=O)(=O)Nc1cccc(-c2ccc3c(c2)SC(=N)N2CCCN=C32)c1 [Compound 24] | 1.94 ± 0.07 µM | > 4.5 µM | > 22.7 µM | > 22.7 µM | > 10 µM | > 10 µM | > 10 µM | > 10 µM
7 | CC(=O)NCCCCCOc1cccc(-c2ccc3c(c2)SC(=N)N2CCCN=C32)c1 [Compound 26] | 3.49 ± 0.21 µM | > 4.5 µM | > 22.7 µM | > 22.7 µM | > 10 µM | > 10 µM | > 10 µM | > 10 µM
8 | CC(=O)Nc1ccc2c(c1)SN1CCCN=C21 [Compound 28] | 18.5 ± 0.4 µM | > 4.5 µM | > 22.7 µM | > 22.7 µM | > 10 µM | > 10 µM | > 10 µM | > 10 µM
9 | FC(F)(F)c1ccc2c(c1)SN1CCCN=C21 [Compound 29] | 9.71 ± 0.29 µM | > 4.5 µM | > 22.7 µM | > 22.7 µM | > 10 µM | > 10 µM | > 10 µM | > 10 µM
10 | c1cncc(-c2ccc3c(c2)SN2CCCN=C32)c1 [Compound 35] | 1.48 ± 0.07 µM | > 4.5 µM | > 22.7 µM | > 22.7 µM | > 10 µM | > 10 µM | > 10 µM | > 10 µM
11 | Oc1ccc(-c2ccc3c(c2)SN2CCCN=C32)cc1 [Compound 38] | 1.81 ± 0.01 µM | > 4.5 µM | > 22.7 µM | > 22.7 µM | > 10 µM | > 10 µM | > 10 µM | > 10 µM
12 | Oc1cccc(-c2ccc3c(c2)SN2CCCN=C32)c1 [Compound 41] | 1.44 ± 0.05 µM | > 4.5 µM | > 22.7 µM | > 22.7 µM | > 10 µM | > 10 µM | > 10 µM | > 10 µM
